Laboratory results taken from patent publication US20140316004A1, “TREATMENT OF POULTRY FOR REDUCING THE FEED CONVERSION RATE OR FOR REDUCING THE INCIDENCE OF ASCITES” (TAMINCO N.V., priority 2006, published 2014).

What was measured:
[1] = Broiler slaughter test: production performance (mortality, growth rate, feed conversion rate); assay type: in vivo, broilers; conditions: 167 mg DMG per kg feed
Text: (§1) To examine all the effects associated with the supplementation of dimethylglycine in fowl feed, a test was setup with broilers as model species. In this slaughter test with 64 broiler hens, 14-day old chickens were bred for 26 days, i.e. till the age of 40 days. At the beginning of the test the broilers were ad random divided in 16 groups of 4 specimens. The birds were fed with one type of feed from the first day on till the end of the test period. The type of feed was attributed on a random basis to the different housings. The animals were setup with a colored ring around their leg for identification purposes within each housing. The control feed was based on a commercial broiler crumble enriched with 5% corn oil to increase the oxidative stress in the feed. Further 1% celite was mixed into the feed as external marker to allow the determination of the apparent nutrient digestibility. The feed had the following composition: 87.65% dry matter, 6.13% ash, 18.05% crude protein, 9.13% crude fat, 4.32% crude fibre and 50.01% other carbohydrates (including 89% starch and 2% sugar). It has a (calculated) metabolizable energy value of about 13.4 MJ/kg.
(§2) In the second type of feed 167 mg of DMG was added per kilogram to the same composition of feed as described for the control feed. Over the entire test period, the broilers consumed on average about 25 mg DMG per bird per day. The housing of the broilers consisted out of circular housings with an open roof and bottom and with a total surface of 0.72 m^2. The material of the fencing was a flexible wire netting with a height of 1 m and mazes of 2×2 cm and thickness of 2 mm. The bottom was strewed with a thick layer of turf with on top a layer of wood-shavings. Feed and water were ad libitum available at all times. The average environmental temperature was maintained at 15° C. to increase the occurrence of ascites (Shlosberg A., Zadikov I., Bendheim U., Handji V., Berman E. Avian Pathology, 21, 369-382 (1992)). A conventional light scheme of 23 hours light:1 hour dark was applied
The daily growth during the two periods (between the first and fifteenth day and between the sixteenth and twentysixth day) was calculated for each surviving animal. The feed uptake for each housing was also measured during both periods. The commercial feed conversion rate was calculated for each of the housings for both periods (FCRI and FCR II) and for the total growth period. This commercial feed conversion rate was calculated by dividing the total feed consumption by the weight gain of the birds which stayed alive during the entire experiment, including also the feed consumption of the birds that died. To determine only the non-therapeutic effect of DMG on the feed conversion rate, the actual feed conversion rate of the living birds was also calculated more particularly on the basis of weight gain and the feed consumed by these living birds (based on the weight gain of the birds that died, the amount of feed consumed by these birds was detracted from the total feed consumption).

ascites [2] = test: Broiler slaughter test: incidence of ascites and ascites heart index at autopsy; assay type: in vivo, broilers
Text: as §1, §2
Finally there was also an autopsy on all chickens. First, the carcass weight was determined by dissection of the head, the paws, evisceration and the deduction of the average feather weight. Next, the weight of the breast, buttock and thigh muscle were determined. Also the heart, liver and abdominal fat were measured. Macroscopic lesions related to ascites were visually reviewed and described as indicated by Scheele et al. (2003) (Scheele, C. W., Van Der Klis, J. D., Kwakernaak, C., Buys, N., Decuypere, E., British Poultry Science, 44(3), 484-489 (2003)), these were: accumulation of liquid in the abdomen, a hydropericard and right heart dilatation. The latter was quantified by the ascites heart index (AHD being the ratio of the dry weight of the right ventricle to the dry weight of both ventricles after freeze drying.

[3] = 1000 mg pangamic acid per kg of feed; not affected, same as control group; cited from earlier work
ascites [4] = conditions: coenzyme Q added to high-calorie pelletized feed, growth rate higher than 50 g/day; cited from earlier work

For `CN(C)CC(=O)O` [DMG, N,N-dimethylglycine], the “Mortality (%)” value ([1]; 26-day test, 15° C, feed enriched with 5% corn oil) was 6.25%, the “Growth rate (g/d) Phase I (days 1-15)” value ([1]; days 1-15) was 70 g/day and the “Commercial feed conversion FCR I (days 1-15)” value ([1]; days 1-15, includes feed of birds that died) was 2.23. The “Actual feed conversion FCR I (days 1-15)” value ([1]; days 1-15, living birds only) was 2.07, the “Growth rate (g/d) Total (days 1-26)” value ([1]; days 1-26) was 77 g/day and the “Commercial feed conversion FCR total (days 1-26)” value ([1]; days 1-26, includes feed of birds that died) was 2.19. For the same molecule, the “Actual feed conversion FCR total (days 1-26)” value ([1]; days 1-26, living birds only) was 2.09, the “Growth rate (g/d) Phase II (days 15-26)” value ([1]; days 15-26) was 87 g/day and the “Commercial feed conversion FCR II (days 15-26)” value ([1]; days 15-26, includes feed of birds that died) was 2.17. For the same molecule, the “Actual feed conversion FCR II (days 15-26)” value ([1]; days 15-26, living birds only) was 2.13, the “Ascites (%)” value (ascites [2]; 167 mg DMG per kg feed, 26-day test, 15° C) was 6.25% and the “AHI, all animals (ascites heart index)” value (ascites [2]; 167 mg DMG per kg feed, autopsy, all animals) was 0.242. For the same molecule, the “AHI, surviving animals (ascites heart index)” value (ascites [2]; 167 mg DMG per kg feed, autopsy, surviving animals) was 0.241, the “Influence DMG (%) on AHI, all animals” value (ascites [2]; versus control, all animals) was −17.5% and the “Influence DMG (%) on AHI, surviving animals” value (ascites [2]; versus control, surviving animals) was −19.2%.
In the case of `CN(C)CC(=O)OC[C@@H](O)[C@@H](O)[C@H](O)[C@@H](O)C(=O)O` [pangamic acid, 6-O-(dimethylaminoacetyl)-D-gluconic acid], the feed conversion rate [3] is given as “about 2.5”.
For coenzyme Q, the “mortality due to ascites” value (ascites [4]) is listed as “reduced considerably”.
